Source: ChEMBL document CHEMBL1201862, “PubChem BioAssay data set” (2004)
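Tested at 5 concentrations; 48 h exposure; 96-well plates; endpoints linearly interpolated, else capped at highest concentration. Here, GI50 denotes the concentration required for 50% inhibition of growth.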 Active and inactive are the calls of the source. Rule as the data show it: active = GI50 up to about 1.1 µM and inactive = higher.

Experiments:
Assay in all cases: NCI-60 cell line screen, 48 h
DU-145 = test system: DU-145
OVCAR-5 = test system: OVCAR-5
NCI-H522 = test system: NCI-H522
Hs-578T = test system: Hs-578T
NCI-H23 = test system: NCI-H23
HOP-62 = test system: HOP-62
IGROV-1 = test system: IGROV-1
HOP-92 = test system: HOP-92
HL-60 = test system: HL-60
MDA-N = test system: MDA-N
HCT-116 = test system: HCT-116
MDA-MB-231 = test system: MDA-MB-231
A549 = test system: A549
SK-MEL-28 = test system: SK-MEL-28
EKVX = test system: EKVX
ACHN = test system: ACHN
MDA-MB-435 = test system: MDA-MB-435
NCI-H226 = test system: NCI-H226
SK-OV-3 = test system: SK-OV-3

SMILES	GI50 (DU-145)	GI50 (OVCAR-5)	GI50 (NCI-H522)	GI50 (Hs-578T)	GI50 (NCI-H23)	GI50 (HOP-62)	GI50 (IGROV-1)	GI50 (HOP-92)	GI50 (HL-60)	GI50 (MDA-N)	GI50 (HCT-116)	GI50 (MDA-MB-231)	GI50 (A549)	GI50 (SK-MEL-28)	GI50 (EKVX)	GI50 (ACHN)	GI50 (MDA-MB-435)	GI50 (NCI-H226)	GI50 (SK-OV-3)
CSc1ncnc2c1ncn2CC(=O)C1CCC2C3CCC4=CC(=O)CCC4(C)C3CCC12C (centres undefined)	13.9 µM (inactive)	23.9 µM (inactive)	3.61 µM (inactive)	19.1 µM (inactive)	3.79 µM (inactive)	2.42 µM (inactive)	6.95 µM (inactive)	14.8 µM (inactive)	0.28 µM (active)	3.07 µM (inactive)	4.15 µM (inactive)	6.64 µM (inactive)	6.81 µM (inactive)	5.47 µM (inactive)	5.55 µM (inactive)	4.97 µM (inactive)	2.96 µM (inactive)	5.85 µM (inactive)	16.3 µM (inactive)
COc1cc(C/N=c2/nc(N(C)C)ss2)cc(OC)c1OC	> 10 µM (inactive)	3.37 µM (inactive)	> 10 µM (inactive)	> 10 µM (inactive)	> 10 µM (inactive)	> 10 µM (inactive)	> 10 µM (inactive)	> 10 µM (inactive)	1.8 µM (inactive)	> 10 µM (inactive)	8.85 µM (inactive)	> 10 µM (inactive)	> 10 µM (inactive)	> 7.31 µM (inactive)	> 10 µM (inactive)	> 10 µM (inactive)	> 10 µM (inactive)	> 10 µM (inactive)	> 10 µM (inactive)
CC1=C(C)C(=O)OC(C(C)(O)C2(O)CCC3(O)C4CC(Cl)C5(O)C(O)C=CC(=O)C5(C)C4CCC32C)C1 (centres undefined)	> 100 µM (inactive)	> 100 µM (inactive)	10.8 µM (inactive)	66.4 µM (inactive)	64.7 µM (inactive)	> 100 µM (inactive)	49.3 µM (inactive)	> 100 µM (inactive)	4.15 µM (inactive)	20 µM (inactive)	19.1 µM (inactive)	30.2 µM (inactive)	69.3 µM (inactive)	49 µM (inactive)	53.7 µM (inactive)	42.1 µM (inactive)	18.7 µM (inactive)	> 100 µM (inactive)	41.6 µM (inactive)
N#CC12CC=C(c3ccccc3)N=C1NC(c1ccccc1)=CC2 (centres undefined)	57.5 µM (inactive)	> 100 µM (inactive)	46.7 µM (inactive)	> 100 µM (inactive)	84.9 µM (inactive)	> 100 µM (inactive)	> 100 µM (inactive)	16 µM (inactive)	22.4 µM (inactive)	37.3 µM (inactive)	47 µM (inactive)	> 100 µM (inactive)	54 µM (inactive)	> 100 µM (inactive)	52.2 µM (inactive)	57.4 µM (inactive)	35.6 µM (inactive)	60.8 µM (inactive)	> 100 µM (inactive)
Cc1ccc2c(c1)C(=O)C(C1OC(=O)c3ccccc31)C2 (centres undefined)	> 100 µM (inactive)	> 100 µM (inactive)	83.4 µM (inactive)	69.5 µM (inactive)	> 100 µM (inactive)	> 100 µM (inactive)	> 100 µM (inactive)	> 100 µM (inactive)	64.7 µM (inactive)	> 100 µM (inactive)	70.3 µM (inactive)	> 100 µM (inactive)	> 100 µM (inactive)	> 100 µM (inactive)	> 100 µM (inactive)	83.8 µM (inactive)	> 100 µM (inactive)	30.5 µM (inactive)	> 100 µM (inactive)
CN(CC(=O)O)c1ncc2c(n1)-c1ccccc1CC2	> 100 µM (inactive)	> 100 µM (inactive)	> 100 µM (inactive)	> 100 µM (inactive)	> 100 µM (inactive)	> 100 µM (inactive)	> 100 µM (inactive)	> 100 µM (inactive)	> 100 µM (inactive)	> 100 µM (inactive)	> 100 µM (inactive)	> 100 µM (inactive)	> 100 µM (inactive)	> 100 µM (inactive)	> 100 µM (inactive)	> 100 µM (inactive)	> 100 µM (inactive)	> 100 µM (inactive)	> 100 µM (inactive)
CC1(C)O[C@@H]2[C@@H]3OC(=O)C[C@@H]3[C@@H](COCc3ccccc3)[C@@H]2O1	> 100 µM (inactive)	> 100 µM (inactive)	> 100 µM (inactive)	> 100 µM (inactive)	> 100 µM (inactive)	> 100 µM (inactive)	> 100 µM (inactive)	> 100 µM (inactive)	> 100 µM (inactive)	> 100 µM (inactive)	> 100 µM (inactive)	> 100 µM (inactive)	> 100 µM (inactive)	> 100 µM (inactive)	> 100 µM (inactive)	> 100 µM (inactive)	> 100 µM (inactive)	> 100 µM (inactive)	> 100 µM (inactive)
COc1cccc2cc(C(=O)Nc3ccccn3)c(=N)oc12	54.8 µM (inactive)	> 100 µM (inactive)	46.5 µM (inactive)	55.7 µM (inactive)	52.5 µM (inactive)	82.8 µM (inactive)	> 100 µM (inactive)	> 100 µM (inactive)	21.6 µM (inactive)	82.2 µM (inactive)	83.2 µM (inactive)	63 µM (inactive)	> 100 µM (inactive)	> 100 µM (inactive)	> 100 µM (inactive)	60.3 µM (inactive)	63.4 µM (inactive)	> 100 µM (inactive)	85.3 µM (inactive)
Cc1ccc(/N=N\c2c(O)ccc3cc(S(=O)(=O)O)ccc23)cc1	> 100 µM (inactive)	> 100 µM (inactive)	> 100 µM (inactive)	> 100 µM (inactive)	> 100 µM (inactive)	> 100 µM (inactive)	> 80.2 µM (inactive)	> 100 µM (inactive)	> 100 µM (inactive)	> 100 µM (inactive)	> 100 µM (inactive)	> 100 µM (inactive)	> 100 µM (inactive)	> 100 µM (inactive)	> 100 µM (inactive)	> 100 µM (inactive)	> 100 µM (inactive)	> 100 µM (inactive)	> 100 µM (inactive)
CSCCCNC(=O)c1csc(-c2csc(CCNC(=O)CNC(=O)CNC(=O)OC(C)(C)C)n2)n1	> 100 µM (inactive)	> 100 µM (inactive)	> 100 µM (inactive)	> 100 µM (inactive)	> 100 µM (inactive)	> 100 µM (inactive)	> 100 µM (inactive)	> 100 µM (inactive)	> 100 µM (inactive)	> 100 µM (inactive)	> 100 µM (inactive)	> 100 µM (inactive)	> 100 µM (inactive)	> 100 µM (inactive)	> 100 µM (inactive)	> 100 µM (inactive)	> 100 µM (inactive)	> 100 µM (inactive)	> 100 µM (inactive)
CN(C)/C=C/c1c2c(nc3ccccc13)C(=O)c1ccccc1C2=O	1.38 µM (inactive)	3.15 µM (inactive)	1.16 µM (inactive)	1.04 µM (active)	0.194 µM (active)	0.266 µM (active)	1.19 µM (inactive)	1.95 µM (inactive)	0.366 µM (active)	0.483 µM (active)	0.923 µM (active)	1.55 µM (inactive)	2.33 µM (inactive)	0.222 µM (active)	1.89 µM (inactive)	0.598 µM (active)	0.357 µM (active)	1.15 µM (inactive)	3.91 µM (inactive)
